Data: US20210196724A1, “BIARYL COMPOSITIONS AND METHODS FOR MODULATING A KINASE CASCADE” (Athenex, Inc., priority 2016, published 2021)

How the values were obtained:
Assay type in all cases: cell-based
AsPC-1 cells = assay: CellTiter-Glo cell viability, AsPC-1; conditions: Homo sapiens, ASPC1, 72 h
Procedure: (§1) The cell viability of 50 cancer cell lines was studied after treatment with Compound 121. Inhibition concentration values at 50% (IC50) were determined using CellTiter-Glo luminescent cell viability assay after incubation with different compound concentrations. GI50 values were determined according to the examples described above. Each cell line was treated with Compound 121, a standard chemotherapy drug as a reference control, and culture medium as a vehicle control.
(§2) All cells were cultured in media supplemented with 10-15% FBS at 37° C. in the presence of 5% CO2 and at 95% humidity. The culture medium was purchased from GIBCO or Sigma, USA. Cisplatin was chosen as the reference control and purchased from Hospira Australia Pty Ltd. The cell lines studied are presented in Table 5.
(§3) Cells were harvested during a logarithmic growth period and cell number count was determined using Count-star. Cell concentrations were adjusted to 4.44×10^4 cells/mL with respective culture medium. 90 μL of cell suspensions were added to two 96-well plates (plates A and B) with a final cell density of 4×10^3 cells/well.
(§4) 10 μL of culture medium was added to each well of plate A for TO reading. The plate was allowed to equilibrate at room temperature for approximately 30 min. 50 μL of CellTiter-Glo was added to each well and the contents were mixed for 5 min on an orbital shaker to induce cell lysis. The plate was allowed to incubate at room temperature for 20 min to stabilize luminescent signal.
(§5) 10 μM Compound 121 in media was serially diluted 3.16-fold to achieve 9 dose levels. Similarly, 100 μM reference control in media was serially diluted 3.16-fold to prepare reference control solutions. 10 μL drug solution and 10 μL of reference control was dispensed into each well in plate B.
(§6) Test plate B was incubated for 72 h in a humidified incubator at 37° C. in the presence of 5% CO2 and then subjected to CTG assay. The plate was allowed to equilibrate at room temperature for about 30 min. 50 μL of CellTiter-Glo was added to each well and the contents were mixed for 5 min on an orbital shaker to induce cell lysis. The plate was allowed to incubate at room temperature for 20 min to stabilize luminescent signal.
(§7) IC50 and GI50 values for each of the 50 cell lines are presented in Table 6 and were calculated based on the dose-response curves depicted in FIGS. 1-50. The dose-response curves were fitted using nonlinear regression model with a sigmoidal dose response. The formula for calculating survival rate was calculated by the formula:
(§8) Survival rate (%)=(LumTest article−LumMedium control)/(LumNone treated−LumMedium control)×100.

NCI-H1155 cells = assay: CellTiter-Glo cell viability, NCI-H1155; conditions: Homo sapiens, 72 h
Procedure: as §1, §2, §3, §4, §5, §6, §7, §8

HT-29 cells = assay: CellTiter-Glo cell viability, HT-29; conditions: Homo sapiens, 72 h
Procedure: as §1, §2, §3, §4, §5, §6, §7, §8

BT474 cells = assay: CellTiter-Glo cell viability, BT474; conditions: Homo sapiens, BT-474, 72 h
Procedure: as §1, §2, §3, §4, §5, §6, §7, §8

OVCAR-3 cells = assay: CellTiter-Glo cell viability, OVCAR-3; conditions: Homo sapiens, 72 h
Procedure: as §1, §2, §3, §4, §5, §6, §7, §8

SK-N-FI cells = assay: CellTiter-Glo cell viability, SK-N-FI; conditions: Homo sapiens, 72 h
Procedure: as §1, §2, §3, §4, §5, §6, §7, §8

MDA-MB-468 cells = assay: CellTiter-Glo cell viability, MDA-MB-468; conditions: Homo sapiens, 72 h
Procedure: as §1, §2, §3, §4, §5, §6, §7, §8

A-673 cells = assay: CellTiter-Glo cell viability, A-673; conditions: Homo sapiens, A673, 72 h
Procedure: as §1, §2, §3, §4, §5, §6, §7, §8

SNU-5 cells = assay: CellTiter-Glo cell viability, SNU-5; conditions: Homo sapiens, SNU-5, SN1J-5 cells, 72 h
Procedure: as §1, §2, §3, §4, §5, §6, §7, §8

786-O cells = assay: CellTiter-Glo cell viability, 786-O; conditions: Homo sapiens, 786-0, 72 h
Procedure: as §1, §2, §3, §4, §5, §6, §7, §8

KP4 cells = assay: CellTiter-Glo cell viability, KP4; conditions: Homo sapiens, KP-4, 72 h
Procedure: as §1, §2, §3, §4, §5, §6, §7, §8

Raji cells = assay: CellTiter-Glo cell viability, Raji; conditions: Homo sapiens, 72 h
Procedure: as §1, §2, §3, §4, §5, §6, §7, §8

Molt-4 cells = assay: CellTiter-Glo cell viability, Molt-4; conditions: Homo sapiens, 72 h
Procedure: as §1, §2, §3, §4, §5, §6, §7, §8

KYSE-150 cells = assay: CellTiter-Glo cell viability, KYSE-150; conditions: Homo sapiens, 72 h
Procedure: as §1, §2, §3, §4, §5, §6, §7, §8

HUH-7 cells = assay: CellTiter-Glo cell viability, HUH-7; conditions: Homo sapiens, 72 h
Procedure: as §1, §2, §3, §4, §5, §6, §7, §8

HuT 78 cells = assay: CellTiter-Glo cell viability, HuT 78; conditions: Homo sapiens, HuT78, 72 h
Procedure: as §1, §2, §3, §4, §5, §6, §7, §8

MES-SA/DX5 cells = assay: CellTiter-Glo cell viability, MES-SA/DX5; conditions: Homo sapiens, 72 h
Procedure: as §1, §2, §3, §4, §5, §6, §7, §8

HuCCT1 cells = assay: CellTiter-Glo cell viability, HuCCT1; conditions: Homo sapiens, HuCCT-1, 72 h
Procedure: as §1, §2, §3, §4, §5, §6, §7, §8

KARPAS-299 cells = assay: CellTiter-Glo cell viability, KARPAS-299; conditions: Homo sapiens, 72 h
Procedure: as §1, §2, §3, §4, §5, §6, §7, §8

143B cells = assay: CellTiter-Glo cell viability, 143B; conditions: Homo sapiens, 72 h
Procedure: as §1, §2, §3, §4, §5, §6, §7, §8

[1] = top conc. 10 μM Compound 121, 100 μM cisplatin

For `Cc1cc(N2CCOC[C@@H]2C)ccc1-c1ccc(CC(=O)NCc2ccc(F)cc2)nc1` [Compound 121], the GI50 (AsPC-1 cells; read-out: Absolute GI50) was 12 nM, the IC50 (AsPC-1 cells; read-out: Absolute IC50) was over 10000 nM and the inhibition at 10 µM (AsPC-1 cells; [1]) was 51.2%. For the same molecule, the GI50 (NCI-H1155 cells; read-out: Absolute GI50) was 6 nM, the IC50 (NCI-H1155 cells; read-out: Absolute IC50) was 7 nM and the inhibition at 10 µM (NCI-H1155 cells; [1]) was 87.3%. For the same molecule, the GI50 (HT-29 cells; read-out: Absolute GI50) was 4 nM, the IC50 (HT-29 cells; read-out: Absolute IC50) was 4 nM and the inhibition at 10 µM (HT-29 cells; [1]) was 78.5%. For the same molecule, the GI50 (BT474 cells; read-out: Absolute GI50) was 12 nM, the IC50 (BT474 cells; read-out: Absolute IC50) was over 10000 nM and the inhibition at 10 µM (BT474 cells; [1]) was 37.9%. It also gave a GI50 (OVCAR-3 cells; read-out: Absolute GI50) of 5 nM, an IC50 (OVCAR-3 cells; read-out: Absolute IC50) of 6 nM and an inhibition at 10 µM (OVCAR-3 cells; [1]) of 64.8%. For the same molecule, the GI50 (SK-N-FI cells; read-out: Absolute GI50) was 3 nM, the IC50 (SK-N-FI cells; read-out: Absolute IC50) was 4 nM and the inhibition at 10 µM (SK-N-FI cells; [1]) was 91.4%. It also gave a GI50 (MDA-MB-468 cells; read-out: Absolute GI50) of 7 nM, an IC50 (MDA-MB-468 cells; read-out: Absolute IC50) of 9 nM and an inhibition at 10 µM (MDA-MB-468 cells; [1]) of 80%. For the same molecule, the GI50 (A-673 cells; read-out: Absolute GI50) was 3 nM, the IC50 (A-673 cells; read-out: Absolute IC50) was 4 nM and the inhibition at 10 µM (A-673 cells; [1]) was 86.1%. The GI50 (SNU-5 cells; read-out: Absolute GI50) was 11 nM, the IC50 (SNU-5 cells; read-out: Absolute IC50) was 12 nM and the inhibition at 10 µM (SNU-5 cells; [1]) was 96.2%. The GI50 (786-O cells; read-out: Absolute GI50) was 5 nM, the IC50 (786-O cells; read-out: Absolute IC50) was 5 nM and the inhibition at 10 µM (786-O cells; [1]) was 85.3%. For the same molecule, the GI50 (KP4 cells; read-out: Absolute GI50) was 7 nM, the IC50 (KP4 cells; read-out: Absolute IC50) was 8 nM and the inhibition at 10 µM (KP4 cells; [1]) was 90.8%. It also gave a GI50 (Raji cells; read-out: Absolute GI50) of 5 nM, an IC50 (Raji cells; read-out: Absolute IC50) of 5 nM and an inhibition at 10 µM (Raji cells; [1]) of 94.2%. The GI50 (Molt-4 cells; read-out: Absolute GI50) was 13 nM, the IC50 (Molt-4 cells; read-out: Absolute IC50) was 14 nM and the inhibition at 10 µM (Molt-4 cells; [1]) was 99.6%. For the same molecule, the GI50 (KYSE-150 cells; read-out: Absolute GI50) was 5 nM, the IC50 (KYSE-150 cells; read-out: Absolute IC50) was 6 nM and the inhibition at 10 µM (KYSE-150 cells; [1]) was 80%. It also gave a GI50 (HUH-7 cells; read-out: Absolute GI50) of 7 nM, an IC50 (HUH-7 cells; read-out: Absolute IC50) of 9 nM and an inhibition at 10 µM (HUH-7 cells; [1]) of 60.8%. For the same molecule, the GI50 (HuT 78 cells; read-out: Absolute GI50) was 8 nM, the IC50 (HuT 78 cells; read-out: Absolute IC50) was 9 nM and the inhibition at 10 µM (HuT 78 cells; [1]) was 95.2%. For the same molecule, the GI50 (MES-SA/DX5 cells; read-out: Absolute GI50) was 7 nM, the IC50 (MES-SA/DX5 cells; read-out: Absolute IC50) was 7 nM and the inhibition at 10 µM (MES-SA/DX5 cells; [1]) was 97.8%. It also gave a GI50 (HuCCT1 cells; read-out: Absolute GI50) of 4 nM, an IC50 (HuCCT1 cells; read-out: Absolute IC50) of 4 nM and an inhibition at 10 µM (HuCCT1 cells; [1]) of 54%. For the same molecule, the GI50 (KARPAS-299 cells; read-out: Absolute GI50) was 6 nM, the IC50 (KARPAS-299 cells; read-out: Absolute IC50) was 6 nM and the inhibition at 10 µM (KARPAS-299 cells; [1]) was 99.4%. It also gave a GI50 (143B cells; read-out: Absolute GI50) of 8 nM, an IC50 (143B cells; read-out: Absolute IC50) of 8 nM and an inhibition at 10 µM (143B cells; [1]) of 97.8%.
